Laboratory results as given in ChEMBL document CHEMBL1201862, “PubChem BioAssay data set” (2004).
Activity calls are given as the source filed them.

How the values were obtained:
[1] = target: Beta-2 adrenergic receptor (Homo sapiens, UniProt P07550); assay: ADRB2 activation measured by internalization – cell-based, FAP fluorogen, flow cytometry, cherry pick 1, dose response (AID 588763); format: functional
Large T antigen = Large T antigen (Simian virus 40, UniProt P03070); format: functional, Betapolyomavirus macacae;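 also: Confirmatory-stage PubChem screen for compounds that inhibit SV40 T antigen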
[2] = target: T1, Rac GTPase-activating protein 1 (Homo sapiens, UniProt Q9H0H5); assay: blockers of MgcRacGAP-driven Rac1 GTP hydrolysis – biochemical, ADP Hunter fluorescence, primary and confirmatory, confirmation (AID 624330); format: functional
T1 sequence (Q9H0H5 whole entry): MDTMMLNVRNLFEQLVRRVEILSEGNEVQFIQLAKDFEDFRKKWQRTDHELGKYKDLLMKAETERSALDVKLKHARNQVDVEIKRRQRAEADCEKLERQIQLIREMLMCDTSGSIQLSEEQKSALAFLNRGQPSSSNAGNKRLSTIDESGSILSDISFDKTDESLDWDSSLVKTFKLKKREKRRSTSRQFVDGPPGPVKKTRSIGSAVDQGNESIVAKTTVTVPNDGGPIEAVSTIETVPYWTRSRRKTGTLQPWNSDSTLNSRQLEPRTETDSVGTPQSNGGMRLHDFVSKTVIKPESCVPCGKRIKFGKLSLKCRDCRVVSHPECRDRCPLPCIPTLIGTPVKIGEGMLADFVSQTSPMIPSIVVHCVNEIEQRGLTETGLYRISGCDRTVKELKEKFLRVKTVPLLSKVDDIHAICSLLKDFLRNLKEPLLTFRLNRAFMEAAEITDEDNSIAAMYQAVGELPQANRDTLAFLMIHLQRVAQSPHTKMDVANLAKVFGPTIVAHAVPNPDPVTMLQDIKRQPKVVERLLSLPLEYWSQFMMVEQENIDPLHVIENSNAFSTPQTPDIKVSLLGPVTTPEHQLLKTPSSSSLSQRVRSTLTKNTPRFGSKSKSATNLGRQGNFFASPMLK

[3] = target: T2, Alkaline phosphatase, tissue-nonspecific isozyme (Homo sapiens, UniProt P05186); assay: potency against alkaline phosphatase TNAP – biochemical, luminescent, dose response, SAR follow-up (AID 1056)
T2 sequence (P05186 whole entry): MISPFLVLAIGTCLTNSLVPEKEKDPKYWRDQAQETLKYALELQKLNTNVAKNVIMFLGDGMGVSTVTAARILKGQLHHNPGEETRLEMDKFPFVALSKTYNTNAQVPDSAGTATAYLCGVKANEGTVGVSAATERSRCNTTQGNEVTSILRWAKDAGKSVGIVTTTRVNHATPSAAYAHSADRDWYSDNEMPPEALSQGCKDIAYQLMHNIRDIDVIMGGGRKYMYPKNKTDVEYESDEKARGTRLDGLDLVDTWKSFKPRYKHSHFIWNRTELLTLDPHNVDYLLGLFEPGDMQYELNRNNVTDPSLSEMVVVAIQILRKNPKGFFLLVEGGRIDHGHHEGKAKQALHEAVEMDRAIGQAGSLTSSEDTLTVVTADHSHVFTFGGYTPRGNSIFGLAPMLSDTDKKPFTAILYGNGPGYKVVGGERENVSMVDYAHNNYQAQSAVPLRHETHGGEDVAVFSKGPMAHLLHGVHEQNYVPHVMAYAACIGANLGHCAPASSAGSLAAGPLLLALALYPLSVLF

Protein skinhead-1 = target: T3, Protein skinhead-1 (Caenorhabditis elegans, UniProt P34707); format: functional
T3 sequence (P34707 whole entry): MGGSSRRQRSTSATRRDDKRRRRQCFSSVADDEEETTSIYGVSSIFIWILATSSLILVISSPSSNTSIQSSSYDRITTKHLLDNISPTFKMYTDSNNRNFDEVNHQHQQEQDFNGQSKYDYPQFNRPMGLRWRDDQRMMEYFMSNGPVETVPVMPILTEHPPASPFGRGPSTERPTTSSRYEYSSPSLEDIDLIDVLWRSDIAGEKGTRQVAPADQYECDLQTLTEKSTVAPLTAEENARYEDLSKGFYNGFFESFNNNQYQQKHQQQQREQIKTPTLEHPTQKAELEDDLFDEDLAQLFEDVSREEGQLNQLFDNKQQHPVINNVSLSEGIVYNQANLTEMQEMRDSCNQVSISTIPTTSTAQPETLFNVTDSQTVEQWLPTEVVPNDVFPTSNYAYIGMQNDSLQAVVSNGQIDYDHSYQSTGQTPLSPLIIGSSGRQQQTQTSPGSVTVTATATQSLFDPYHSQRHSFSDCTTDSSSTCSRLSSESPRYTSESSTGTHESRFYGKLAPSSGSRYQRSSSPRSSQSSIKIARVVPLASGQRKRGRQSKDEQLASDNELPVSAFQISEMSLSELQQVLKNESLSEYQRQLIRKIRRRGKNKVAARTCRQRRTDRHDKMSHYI

[4] = target: Glyceraldehyde-3-phosphate dehydrogenase (Homo sapiens, UniProt P04406)
[5] = target: T4, Serine/threonine-protein phosphatase (Candida dubliniensis (strain CD36 / CBS 7987 / NCPF 3949 / NRRLY-17841) (Yeast), UniProt B9W6M3); assay: blockers of CaCl2-induced CDRE-lacZ signaling – S. cerevisiae, luminescence, secondary, dose response (AID 2388); format: functional, cell-based;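 also: yeast reporter cells carrying a calcineurin-responsive lacZ construct stimulated with calcium chloride; luminescent beta-galactosidase reporter signal in whole cells rather than isolated phosphatase activity; potency for inhibition where a drop in reporter signal means calcineurin blockade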
T4 sequence (B9W6M3 whole entry): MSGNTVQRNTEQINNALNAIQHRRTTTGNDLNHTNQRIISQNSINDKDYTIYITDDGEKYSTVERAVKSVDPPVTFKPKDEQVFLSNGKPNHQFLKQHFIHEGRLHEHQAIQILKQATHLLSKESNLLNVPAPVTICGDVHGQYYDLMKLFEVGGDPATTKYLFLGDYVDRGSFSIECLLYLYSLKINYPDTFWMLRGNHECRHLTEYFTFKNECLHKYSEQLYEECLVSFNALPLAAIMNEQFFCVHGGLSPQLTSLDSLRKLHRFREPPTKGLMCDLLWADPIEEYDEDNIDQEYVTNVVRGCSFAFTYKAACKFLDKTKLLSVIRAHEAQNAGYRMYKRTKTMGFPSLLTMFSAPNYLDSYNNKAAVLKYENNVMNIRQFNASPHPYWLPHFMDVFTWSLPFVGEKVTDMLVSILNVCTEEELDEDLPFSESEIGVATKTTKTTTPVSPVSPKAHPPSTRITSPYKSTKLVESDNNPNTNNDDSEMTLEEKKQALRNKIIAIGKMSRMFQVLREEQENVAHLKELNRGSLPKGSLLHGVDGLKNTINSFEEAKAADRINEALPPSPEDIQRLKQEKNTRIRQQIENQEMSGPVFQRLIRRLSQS

[6] = NIH-3T3 fibroblast cytotoxicity, dose response, cytotoxicity control, cell-based, fluorescence, Alamar Blue, secondary assay (AID 2327); format: functional;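 also: NIH-3T3 mouse fibroblasts cultured with fluconazole at 8 µg/mL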
[7] = fluconazole-exposed Candida albicans growth modulators – fluorescence, retest, confirmation (AID 2467); format: functional, cell-based
[8] = target: ATP-dependent molecular chaperone HSP82 (Candida albicans (strain WO-1) (Yeast), UniProt C4YTQ8); assay: steroid-induced GRE reporter decrease in yeast – S. cerevisiae, luminescence, Hsp90 inhibitor project, dose response (AID 2400); format: functional, cell-based;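 also: beta-galactosidase luminescence from glucocorticoid response element reporter as proxy for Hsp90 function; inhibitor potency where signal loss means Hsp90 inhibition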
Fatty acid synthase [9] = target: T5, Fatty acid synthase (Homo sapiens, UniProt P49327); assay: inhibition of human FAS-TE enzyme activity – biochemical, endpoint fluorescence intensity, uHTS hits, dose response (AID 624327); format: functional;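 also: fluorescence from hydrolysis of an O-methyl fluorescein acyl ester substrate by the enzyme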
Fatty acid synthase [10] = target: T5, Fatty acid synthase; assay: inhibition of human FAS-TE enzyme activity – biochemical, kinetic fluorescence intensity, dose response (AID 624326); format: functional;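 also: rate of fluorescence rise from hydrolysis of a fluorogenic O-methyl fluorescein ester substrate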
[11] = target: Protein-tyrosine kinase 2-beta (Homo sapiens, UniProt Q14289);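 also: potency of inhibitors of PYK2 kinase phosphorylation of poly-GT substrate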
Coagulation factor XII = target: T6, Coagulation factor XII (Homo sapiens, UniProt P00748); format: functional;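 also: activated factor XIIa alpha cleaving a fluorogenic AMC peptide substrate; inhibitor potency from loss of enzyme activity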
T6 sequence (P00748 whole entry): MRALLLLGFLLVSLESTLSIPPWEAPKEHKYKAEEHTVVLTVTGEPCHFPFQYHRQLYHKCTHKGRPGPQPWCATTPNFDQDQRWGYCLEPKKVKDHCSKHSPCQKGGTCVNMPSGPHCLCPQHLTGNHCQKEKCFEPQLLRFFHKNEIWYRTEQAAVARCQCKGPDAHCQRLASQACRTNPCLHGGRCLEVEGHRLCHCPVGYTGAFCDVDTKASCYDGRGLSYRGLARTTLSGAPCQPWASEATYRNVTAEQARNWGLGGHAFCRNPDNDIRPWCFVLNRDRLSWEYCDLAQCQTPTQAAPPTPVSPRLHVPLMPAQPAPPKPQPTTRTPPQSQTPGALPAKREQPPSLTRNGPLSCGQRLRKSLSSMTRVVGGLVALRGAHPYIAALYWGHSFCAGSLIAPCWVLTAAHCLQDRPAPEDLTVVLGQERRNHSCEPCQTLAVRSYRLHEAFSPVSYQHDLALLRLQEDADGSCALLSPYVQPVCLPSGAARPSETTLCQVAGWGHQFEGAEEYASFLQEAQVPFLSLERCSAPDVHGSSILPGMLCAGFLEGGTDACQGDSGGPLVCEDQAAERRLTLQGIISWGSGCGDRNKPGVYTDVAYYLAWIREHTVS

Troponin, cardiac muscle = Troponin, cardiac muscle (Homo sapiens, UniProt P19429+P45379+P63316); assay: Fluorescence-based biochemical high throughput dose response assay for activators of the calcium sensitivity of cardiac Regulated Thin Filaments (RTF). [Related pubchem assays (depositor defined):AID493008, AID493018, AID504382, AID504383]; format: protein-complex assay
[12] = decrease of insulin promoter-GFP reporter – imaging, high-content screening, mouse beta cells (AID 1628); format: functional; conditions: MIN6
BJ [13] = assay: cells; format: functional, cell-based; conditions: Homo sapiens
BJ [14] = assay: BJ-TERT-LT-ST fibroblast viability loss – cell-based, RAS-independent, luminescence, dose response (AID 1935); format: functional; conditions: Homo sapiens;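 also: BJ fibroblasts immortalized with TERT plus LT and ST oncogenes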
[15] = target: G-protein coupled receptor 55 (Homo sapiens, UniProt Q9Y2T6); assay: inhibition of LPI-stimulated GPR55 beta-arrestin translocation – imaging, U2OS, beta-arrestin-GFP, LPI agonist, primary screen (AID 2013); format: functional;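 also: antagonist potency measured as reduced agonist-driven arrestin aggregation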
[16] = DRD fibroblast viability loss – cell-based, non-viral oncogenic, luminescence, dose response (AID 1934); format: functional; conditions: Homo sapiens
[17] = MIN6 cell viability loss – mouse insulinoma, cytotoxicity control, dose response (AID 2122); format: functional;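 also: confirmatory high-throughput counterscreen run to flag cytotoxic compounds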
BJ [18] = assay: BJ-TERT fibroblast viability loss – cell-based, RAS-independent, luminescence, dose response (AID 1933); format: functional; conditions: Homo sapiens
[19] = target: FAD-linked sulfhydryl oxidase ALR (Homo sapiens, UniProt P55789); assay: ALR-catalysed DTT oxidation blockers – biochemical, H2O2 detection, luminescence, cherry-pick, dose response (AID 493248)
Nonstructural protein 1 = Nonstructural protein 1 (Influenza A virus, UniProt Q194T2); format: functional, Influenza A virus (A/California/07/2009(H1N1))
P388/ADR = assay: cells; format: functional; conditions: Mus musculus
P388 = assay: cells; format: functional; conditions: Mus musculus
SN12K1 = assay: cells; format: functional; conditions: Homo sapiens
HEK293 = assay: EBV LMP1 TES2 canonical NF-kB signalling blockers – cell-based, HEK293, luciferase, cherry-pick, dose response (AID 588343); format: functional; conditions: Homo sapiens

Sequence of Beta-2 adrenergic receptor (P07550 whole entry): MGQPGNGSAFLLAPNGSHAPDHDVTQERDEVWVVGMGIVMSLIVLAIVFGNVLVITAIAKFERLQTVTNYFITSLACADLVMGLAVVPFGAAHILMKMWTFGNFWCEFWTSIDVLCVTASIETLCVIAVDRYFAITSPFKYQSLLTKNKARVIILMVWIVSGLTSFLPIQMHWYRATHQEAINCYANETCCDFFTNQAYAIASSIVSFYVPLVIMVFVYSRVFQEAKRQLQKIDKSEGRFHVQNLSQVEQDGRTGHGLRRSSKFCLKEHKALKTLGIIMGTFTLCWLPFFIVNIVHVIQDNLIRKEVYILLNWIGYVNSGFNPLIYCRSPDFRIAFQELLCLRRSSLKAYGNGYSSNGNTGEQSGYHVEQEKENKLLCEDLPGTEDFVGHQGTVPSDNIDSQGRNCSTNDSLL
Sequence of ATP-dependent molecular chaperone HSP82 (C4YTQ8 whole entry): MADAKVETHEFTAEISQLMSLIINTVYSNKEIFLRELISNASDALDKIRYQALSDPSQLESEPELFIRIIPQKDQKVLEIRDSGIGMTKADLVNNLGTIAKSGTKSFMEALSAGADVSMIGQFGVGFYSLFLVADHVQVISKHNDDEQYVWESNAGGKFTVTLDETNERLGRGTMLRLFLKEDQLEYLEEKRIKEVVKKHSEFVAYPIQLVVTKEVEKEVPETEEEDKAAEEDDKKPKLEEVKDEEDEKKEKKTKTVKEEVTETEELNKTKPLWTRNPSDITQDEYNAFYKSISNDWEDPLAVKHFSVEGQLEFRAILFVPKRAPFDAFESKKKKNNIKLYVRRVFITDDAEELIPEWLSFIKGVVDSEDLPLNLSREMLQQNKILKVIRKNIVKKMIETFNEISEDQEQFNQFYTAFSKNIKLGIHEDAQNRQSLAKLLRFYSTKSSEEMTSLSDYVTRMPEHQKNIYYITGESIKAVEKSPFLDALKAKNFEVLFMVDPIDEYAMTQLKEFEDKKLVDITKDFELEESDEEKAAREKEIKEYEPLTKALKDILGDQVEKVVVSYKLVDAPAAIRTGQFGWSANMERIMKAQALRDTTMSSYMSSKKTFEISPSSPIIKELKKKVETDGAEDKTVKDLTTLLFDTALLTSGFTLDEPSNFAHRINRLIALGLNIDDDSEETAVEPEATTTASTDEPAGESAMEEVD
T5 sequence (P49327 whole entry): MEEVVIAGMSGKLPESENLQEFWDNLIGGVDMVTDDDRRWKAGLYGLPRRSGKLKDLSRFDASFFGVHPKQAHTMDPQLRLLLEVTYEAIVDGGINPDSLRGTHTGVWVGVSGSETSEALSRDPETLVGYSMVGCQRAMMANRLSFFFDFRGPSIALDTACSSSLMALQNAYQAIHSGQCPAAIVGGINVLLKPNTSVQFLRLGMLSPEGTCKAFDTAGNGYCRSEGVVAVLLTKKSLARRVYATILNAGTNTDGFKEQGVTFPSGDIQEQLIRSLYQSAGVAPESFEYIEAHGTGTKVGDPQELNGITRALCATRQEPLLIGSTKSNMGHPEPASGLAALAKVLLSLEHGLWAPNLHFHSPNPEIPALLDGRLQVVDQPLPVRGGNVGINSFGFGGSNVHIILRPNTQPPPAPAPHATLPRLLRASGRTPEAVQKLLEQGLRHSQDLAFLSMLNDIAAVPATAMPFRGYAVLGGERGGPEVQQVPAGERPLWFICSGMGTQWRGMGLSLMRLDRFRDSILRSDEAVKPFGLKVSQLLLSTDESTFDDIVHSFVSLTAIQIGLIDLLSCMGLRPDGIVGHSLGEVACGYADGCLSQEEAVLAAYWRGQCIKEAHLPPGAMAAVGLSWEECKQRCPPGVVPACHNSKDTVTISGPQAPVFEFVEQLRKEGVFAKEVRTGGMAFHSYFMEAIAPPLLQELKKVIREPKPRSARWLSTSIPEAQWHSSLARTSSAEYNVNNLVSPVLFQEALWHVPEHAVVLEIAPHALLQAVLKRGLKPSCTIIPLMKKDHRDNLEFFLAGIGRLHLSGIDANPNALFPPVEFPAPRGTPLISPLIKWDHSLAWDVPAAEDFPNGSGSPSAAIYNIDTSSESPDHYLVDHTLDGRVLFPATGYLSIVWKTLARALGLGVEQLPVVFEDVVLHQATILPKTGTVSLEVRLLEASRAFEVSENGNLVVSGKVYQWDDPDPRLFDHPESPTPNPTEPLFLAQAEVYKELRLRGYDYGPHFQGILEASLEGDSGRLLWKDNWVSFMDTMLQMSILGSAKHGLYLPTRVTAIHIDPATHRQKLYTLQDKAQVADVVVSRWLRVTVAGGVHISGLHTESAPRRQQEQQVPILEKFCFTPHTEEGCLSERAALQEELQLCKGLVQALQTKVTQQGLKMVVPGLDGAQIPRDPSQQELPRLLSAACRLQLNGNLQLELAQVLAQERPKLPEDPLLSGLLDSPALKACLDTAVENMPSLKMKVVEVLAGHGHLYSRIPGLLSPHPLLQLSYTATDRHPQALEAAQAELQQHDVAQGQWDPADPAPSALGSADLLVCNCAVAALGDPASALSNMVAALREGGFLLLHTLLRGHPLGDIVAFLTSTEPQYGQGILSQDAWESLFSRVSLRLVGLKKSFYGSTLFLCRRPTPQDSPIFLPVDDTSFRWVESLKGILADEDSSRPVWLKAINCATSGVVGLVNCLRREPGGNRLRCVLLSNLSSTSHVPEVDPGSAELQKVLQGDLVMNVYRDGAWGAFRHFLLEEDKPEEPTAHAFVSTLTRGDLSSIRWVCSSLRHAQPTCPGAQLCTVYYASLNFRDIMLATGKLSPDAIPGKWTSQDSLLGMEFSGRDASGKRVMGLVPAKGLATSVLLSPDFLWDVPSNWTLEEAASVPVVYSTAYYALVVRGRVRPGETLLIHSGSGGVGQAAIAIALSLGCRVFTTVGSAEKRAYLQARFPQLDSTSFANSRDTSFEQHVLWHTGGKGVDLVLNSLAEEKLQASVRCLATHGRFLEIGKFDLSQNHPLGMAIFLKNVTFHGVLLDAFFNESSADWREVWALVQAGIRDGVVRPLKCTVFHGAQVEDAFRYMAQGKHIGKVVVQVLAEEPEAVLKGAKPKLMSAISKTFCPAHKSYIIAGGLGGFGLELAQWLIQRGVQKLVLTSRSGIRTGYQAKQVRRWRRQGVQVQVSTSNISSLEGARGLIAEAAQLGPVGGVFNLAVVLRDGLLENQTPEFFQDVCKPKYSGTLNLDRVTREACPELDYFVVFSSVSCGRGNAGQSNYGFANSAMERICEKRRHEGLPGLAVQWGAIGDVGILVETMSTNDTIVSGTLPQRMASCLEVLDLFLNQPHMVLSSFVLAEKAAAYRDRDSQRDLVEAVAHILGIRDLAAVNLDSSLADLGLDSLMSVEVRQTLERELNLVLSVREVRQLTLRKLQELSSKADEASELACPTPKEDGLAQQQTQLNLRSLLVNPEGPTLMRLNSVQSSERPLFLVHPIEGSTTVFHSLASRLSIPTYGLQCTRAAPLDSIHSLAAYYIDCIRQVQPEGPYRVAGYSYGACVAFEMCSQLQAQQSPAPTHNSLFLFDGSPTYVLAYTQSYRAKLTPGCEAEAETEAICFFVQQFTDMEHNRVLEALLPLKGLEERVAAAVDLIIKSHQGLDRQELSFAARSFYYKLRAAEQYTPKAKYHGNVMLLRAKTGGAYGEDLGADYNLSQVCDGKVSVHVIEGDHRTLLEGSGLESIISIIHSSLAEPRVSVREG
Sequence of G-protein coupled receptor 55 (Q9Y2T6 whole entry): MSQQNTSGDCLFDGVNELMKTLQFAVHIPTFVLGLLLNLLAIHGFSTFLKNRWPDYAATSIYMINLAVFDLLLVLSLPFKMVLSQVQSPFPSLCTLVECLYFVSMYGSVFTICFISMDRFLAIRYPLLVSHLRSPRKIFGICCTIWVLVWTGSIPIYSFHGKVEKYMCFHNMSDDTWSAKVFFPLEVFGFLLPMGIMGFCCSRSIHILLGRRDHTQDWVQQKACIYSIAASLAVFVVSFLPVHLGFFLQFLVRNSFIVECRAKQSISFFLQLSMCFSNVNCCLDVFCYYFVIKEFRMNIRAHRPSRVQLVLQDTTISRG
Sequence of Nonstructural protein 1 (Q194T2 whole entry): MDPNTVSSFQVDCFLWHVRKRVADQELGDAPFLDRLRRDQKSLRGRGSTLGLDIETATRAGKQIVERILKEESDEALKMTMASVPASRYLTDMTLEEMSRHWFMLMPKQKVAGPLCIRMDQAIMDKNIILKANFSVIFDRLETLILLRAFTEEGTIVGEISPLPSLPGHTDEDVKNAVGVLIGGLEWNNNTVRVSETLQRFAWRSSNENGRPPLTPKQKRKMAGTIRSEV
Sequence of Large T antigen (P03070 whole entry): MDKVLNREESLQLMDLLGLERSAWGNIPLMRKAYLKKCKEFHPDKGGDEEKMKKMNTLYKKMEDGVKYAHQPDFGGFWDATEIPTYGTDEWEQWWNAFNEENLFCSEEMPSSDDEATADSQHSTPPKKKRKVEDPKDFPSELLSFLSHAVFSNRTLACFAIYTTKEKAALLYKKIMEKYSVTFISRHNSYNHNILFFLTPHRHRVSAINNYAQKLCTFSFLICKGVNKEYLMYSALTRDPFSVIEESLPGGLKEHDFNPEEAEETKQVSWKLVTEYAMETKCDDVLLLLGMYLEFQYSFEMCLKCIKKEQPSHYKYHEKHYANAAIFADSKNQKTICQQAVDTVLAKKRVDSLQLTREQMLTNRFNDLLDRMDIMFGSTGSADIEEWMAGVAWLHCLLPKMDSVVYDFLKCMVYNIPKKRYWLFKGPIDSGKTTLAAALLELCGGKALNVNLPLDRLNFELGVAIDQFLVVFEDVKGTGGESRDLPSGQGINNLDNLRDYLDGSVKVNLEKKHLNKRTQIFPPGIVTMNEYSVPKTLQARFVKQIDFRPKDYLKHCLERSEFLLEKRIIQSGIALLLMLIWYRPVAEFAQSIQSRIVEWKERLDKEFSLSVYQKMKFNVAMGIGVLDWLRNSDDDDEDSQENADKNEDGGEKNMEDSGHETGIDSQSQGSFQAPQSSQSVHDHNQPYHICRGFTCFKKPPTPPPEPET

## CCOC(=O)C1(C)C=C(Nc2ccc(O)cc2)C(=O)N1c1ccc(O)cc1 (stereo not drawn)
[1]
  EC50: 1.09 µM (active)
Large T antigen
  IC50: 8.11 µM (active)
[2]
  IC50: 21.4 µM (active)

## COC(=O)c1cc(-c2ccc(Br)cc2)n[nH]1
[3]
  IC50: > 100 µM (inactive)
Protein skinhead-1
  IC50: > 100 µM (inactive)
[4]
  IC50: > 100 µM (not active)

## O=C(Cc1nc2ccccc2s1)c1ccc(O)cc1O
[5]
  EC50: > 180 µM (inactive)
[6]
  EC50: > 160 µM (inactive)
[7]
  EC50: 0.691 µM (active)
[8]
  EC50: > 160 µM (inactive)

## COc1cc2ncc(S(=O)(=O)c3ccccc3)c(N3CCCC(C)C3)c2cc1OC (stereo not drawn)
Fatty acid synthase [9]
  IC50: 4.78 µM (active)
[1]
  EC50: 1.07 µM (active)
Fatty acid synthase [10]
  IC50: 3.13 µM (active)

## O=c1oc(-c2ccc(Br)o2)nc2ccccc12
[11]
  IC50: 2.66 µM (active)
Coagulation factor XII
  IC50: > 50 µM (inactive)

## COc1ccccc1N1CCN(c2ccc([N+](=O)[O-])cc2Cl)CC1
Troponin, cardiac muscle
  EC50: > 71.5 µM (inactive)

## N#C/C(=C\c1ccc(N2CCOCC2)cc1)c1ccccc1
[5]
  EC50: > 180 µM (inactive)
[6]
  EC50: > 150 µM (inactive)
[7]
  EC50: 0.49 µM (active)
[8]
  EC50: 68.9 µM (active)

## CCc1nc(C)cn1S(=O)(=O)c1cc([N+](=O)[O-])ccc1Cl
[12]
  IC50: 2.59 µM (active)
BJ [13]
  EC50: 4.81 µM (inconclusive)
BJ [14]
  EC50: 3.93 µM (active)
[15]
  IC50: 6.53 µM (active)
[16]
  EC50: 7.62 µM (inconclusive)
[17]
  IC50: 2.53 µM (active)
BJ [18]
  EC50: 8.45 µM (inconclusive)

## NS(=O)(=O)c1ccc(NNC(=O)c2sccc2Cl)cc1
Coagulation factor XII
  IC50: > 50 µM (inactive)

## O=C1NC(=O)N(Cc2ccc(F)cc2)C(=O)/C1=C/NNc1ccccc1
Troponin, cardiac muscle
  EC50: > 71.5 µM (inactive)
[19]
  AC50: 0.438 µM (active)

## CC1=NN(c2ccc(C)cc2)C(=O)/C1=C\C=C\c1ccccc1
Nonstructural protein 1
  IC50: 21.1 µM (active)

## O=C(COc1ccccc1F)N1c2ccccc2CCc2ccccc21
[1]
  EC50: 1.6 µM (active)

## COCCOCOc1ccc(OCc2ccccc2)cc1
P388/ADR
  GI50: 24 µM (inactive)
P388
  GI50: 31.3 µM (inactive)
SN12K1
  GI50: > 100 µM (inactive)

## COc1cc2c(cc1Oc1ccc(OC)c3c1CC1c4c(cc(OC)c(OC)c4-3)CCN1C)CC1c3c(cc(OC)c(OC)c3-2)CCN1C (stereo not drawn)
P388/ADR
  GI50: 1.87 µM (inactive)
P388
  GI50: 1.77 µM (inactive)
SN12K1
  GI50: 0.424 µM (active)

## Cc1ccccc1-c1nc2c(C(=O)NCCN(C)C)cccc2[nH]1
P388/ADR
  GI50: 26.5 µM (inactive)
P388
  GI50: 16.3 µM (inactive)
SN12K1
  GI50: 30.5 µM (inactive)

## Cc1ccsc1/C=N/NC(=O)c1ccc2c(c1)OCCO2
HEK293
  AC50: 7.87 µM (active)
Coagulation factor XII
  IC50: > 50 µM (inactive)
